Assay [1] addresses T1, ALK (Homo sapiens, UniProt Q9UM73).
T1 construct: purchased DiscoverX (Eurofins) KINOMEscan / scanEDGE, inferred from the naming style
Put plainly: KINOMEscan. The class given is binding. Particulars: 2000 nM; read-out: Percent Control.

Assay [2] concerns the target T2, CSNK1G2 (Homo sapiens, UniProt P78368).
T2 construct: purchased DiscoverX (Eurofins) KINOMEscan / scanEDGE, inferred from the naming style
The assay can be described thus: KINOMEscan. The class given is binding. To be noted: 2000 nM; read-out: Percent Control.

In assay [3] the test system is U2OS cells. The assay can be described thus: IR-induced RAD51 / RPA32 foci, confocal. Particulars: in combination with IR. The assay is classed as cell-based. How it is done: Cells were grown on sterilized coverslips and fixed with 4% paraformaldehyde (PFA) (Santa Cruz) and 2% sucrose (Sigma Aldrich) for 15 min at room temperature. They were then permeabilized with 0.2% NP-40 (Thermo Scientific) for 10 min at room temperature followed by 30 min of blocking in blocking buffer (2 or 3% BSA, 5% glycerol, 0.1% Tween 20 (Sigma Aldrich)). Coverslips were subsequently incubated for 1, 2, or 24 h in primary antibody and 40 min in secondary antibody diluted in blocking buffer, DNA was stained with DAPI for 10 min. The coverslips were mounted with Prolonged Gold mounting medium (Invitrogen). Images were acquired with a Zeiss LSM 780 microscope using a 40× or 63× oil immersion lens and processed in ImageJ and CellProfiler.
To visualize PFKFB3, RPA32, RAD51, BRCA1, 53BP1, and RRM2 IRIF, the cells were first washed with PBS and then incubated for 5 min at room temperature with cytoskeleton (CSK) buffer containing 10 mM PIPES pH 7.0 (Sigma Aldrich), 100 mM NaCl (EMD Millipore), 300 mM sucrose (Sigma Aldrich), 3 mM MgCl2 (Sigma Aldrich), and 0.7% Triton X-100 (Sigma Aldrich). After these treatments, the cells were washed once again with PBS and then fixed in 4% PFA with 2% sucrose.

For assay [4], the system named is U2OS cells. Put plainly: Cell cycle analysis (propidium iodide, flow cytometry). The class given is cell-based. Particulars: 24 h post-IR. How it is done:
For cell cycle analysis, cells were treated or transfected with siRNA as described and harvested at the indicated time points with trypsin. For studies using IR, cells were exposed to IR with 2 Gy, and harvested at the indicated time points with trypsin. The cells were washed in PBS and fixed with 70% ethanol in PBS at 4 °C for 1 h and then stored at −20 °C until staining. Ethanol was removed by centrifugation and cells were then washed in PBS before staining DNA with propidium iodide (PI) solution containing 40 μg/mL PI, 100 μg/mL RNase A, and 0.1% Triton X-100 (Sigma Aldrich). Cells were analyzed by flow cytometry on a FACS Navios (Beckman Coulter) using Kaluza software.

T2 sequence (P78368 whole entry): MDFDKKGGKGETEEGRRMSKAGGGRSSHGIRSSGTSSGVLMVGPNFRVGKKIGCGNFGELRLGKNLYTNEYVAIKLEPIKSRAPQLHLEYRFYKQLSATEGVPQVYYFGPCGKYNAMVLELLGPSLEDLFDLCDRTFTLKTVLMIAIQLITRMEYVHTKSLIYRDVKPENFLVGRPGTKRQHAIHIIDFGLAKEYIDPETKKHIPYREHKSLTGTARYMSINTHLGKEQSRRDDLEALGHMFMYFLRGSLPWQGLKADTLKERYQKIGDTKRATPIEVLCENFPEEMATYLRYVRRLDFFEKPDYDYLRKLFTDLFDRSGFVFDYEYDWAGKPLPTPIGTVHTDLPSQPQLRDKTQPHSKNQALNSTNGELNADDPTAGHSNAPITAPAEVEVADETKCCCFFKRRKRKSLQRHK
T1 sequence (Q9UM73 19-1620): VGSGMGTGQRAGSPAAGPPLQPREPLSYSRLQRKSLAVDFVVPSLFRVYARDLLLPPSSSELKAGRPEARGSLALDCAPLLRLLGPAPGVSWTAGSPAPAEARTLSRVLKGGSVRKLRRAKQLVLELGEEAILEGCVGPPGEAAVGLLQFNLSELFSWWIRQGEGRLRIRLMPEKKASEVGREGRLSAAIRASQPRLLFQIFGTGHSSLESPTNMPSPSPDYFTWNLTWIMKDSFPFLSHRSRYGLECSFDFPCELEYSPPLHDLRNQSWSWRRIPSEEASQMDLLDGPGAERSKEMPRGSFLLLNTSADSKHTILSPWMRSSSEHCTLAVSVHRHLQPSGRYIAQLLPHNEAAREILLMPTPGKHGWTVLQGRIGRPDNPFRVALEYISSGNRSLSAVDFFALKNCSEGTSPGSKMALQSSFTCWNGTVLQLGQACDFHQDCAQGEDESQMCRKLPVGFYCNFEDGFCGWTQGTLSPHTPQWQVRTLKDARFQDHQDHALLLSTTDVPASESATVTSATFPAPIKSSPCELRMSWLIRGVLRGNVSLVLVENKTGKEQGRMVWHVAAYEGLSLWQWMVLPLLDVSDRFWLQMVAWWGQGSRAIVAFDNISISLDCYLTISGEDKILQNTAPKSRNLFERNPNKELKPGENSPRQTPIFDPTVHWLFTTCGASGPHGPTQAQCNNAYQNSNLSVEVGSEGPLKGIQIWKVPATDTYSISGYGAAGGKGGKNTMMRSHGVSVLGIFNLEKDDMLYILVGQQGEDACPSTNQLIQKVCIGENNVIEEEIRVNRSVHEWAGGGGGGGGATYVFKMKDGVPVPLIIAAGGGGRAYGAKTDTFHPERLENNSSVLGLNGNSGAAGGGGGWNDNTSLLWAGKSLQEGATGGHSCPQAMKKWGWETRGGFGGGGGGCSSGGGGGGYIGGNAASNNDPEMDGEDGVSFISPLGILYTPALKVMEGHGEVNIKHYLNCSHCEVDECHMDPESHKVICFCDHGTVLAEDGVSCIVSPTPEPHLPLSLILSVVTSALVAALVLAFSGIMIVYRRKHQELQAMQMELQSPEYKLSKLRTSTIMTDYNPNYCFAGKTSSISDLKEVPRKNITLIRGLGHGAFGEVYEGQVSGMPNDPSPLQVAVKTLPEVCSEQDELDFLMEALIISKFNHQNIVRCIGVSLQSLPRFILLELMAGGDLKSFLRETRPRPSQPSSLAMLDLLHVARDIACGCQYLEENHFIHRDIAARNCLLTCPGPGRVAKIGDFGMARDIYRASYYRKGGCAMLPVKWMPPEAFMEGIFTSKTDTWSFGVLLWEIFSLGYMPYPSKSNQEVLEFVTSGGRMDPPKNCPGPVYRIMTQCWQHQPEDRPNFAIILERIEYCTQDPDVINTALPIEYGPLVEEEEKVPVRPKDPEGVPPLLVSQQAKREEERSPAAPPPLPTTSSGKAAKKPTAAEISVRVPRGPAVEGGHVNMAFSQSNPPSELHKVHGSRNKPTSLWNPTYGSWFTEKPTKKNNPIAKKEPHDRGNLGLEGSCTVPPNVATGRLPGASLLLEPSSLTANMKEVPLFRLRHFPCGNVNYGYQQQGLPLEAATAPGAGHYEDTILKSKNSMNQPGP

With `O=C(O)c1ccc(NS(=O)(=O)c2cccc(-c3cc(F)ccc3O)c2)cc1O` [KAN0438241, 4-{[(5′-Fluoro-2′-hydroxybiphenyl-3-yl)sulfonyl]amino}-2-hydroxybenzoic acid], the remaining binding at 2 µM was 100% in assay [1] and 97% in assay [2].
Take `O=C(OCCO)c1ccc(NS(=O)(=O)c2cccc(-c3cc(F)ccc3O)c2)cc1O` [KAN0438757, 2-Hydroxyethyl-4-{[(5′-fluoro-2′-hydroxybiphenyl-3-yl)sulfonyl]amino}-2-hydroxybenzoate]: in assay [3], the “IR-induced recruitment of RPA32 and RAD51 into repair foci (in words)” value is given as “disrupted”. The “accumulation of cells in G2/M phase upon IR (in words)” value in assay [4] was “increased accumulation of cells in the G2/M phase”.

Source of the values: publication PMC6155239, “Targeting PFKFB3 radiosensitizes cancer cells and suppresses homologous recombination” (Nature Communications, 2018).
